The record followed here is patent EP0001516A1, “Beta-Lactam compounds, processes for their preparation, pharmaceutical compositions containing them and intermediates of use in their preparation” (GLAXO GROUP LIMITED, priority 1977, dated 1979).

Data set [1] addresses T1, partially purified β-lactamase PCI (Staphylococcus aureus, UniProt P00807).
T1 construct: partially purified β-lactamases from Escherichia coli (either TEM or RPI), Klebsiella aerogenes (K1) and Staphylococcus aureus (PCI); endogenous in cells; host or cells: Staphylococcus aureus (PCI), enzyme partially purified from the producing bacterium
Put plainly: β-Lactamase inhibition (hydrolysis of ampicillin). The data set is classed as biochemical. The settings on record: ampicillin sodium 500 µg/ml, 37°C, pH7, read-out: μg/ml of compound giving 50% inhibition of hydrolysis of ampicillin (converted). As to the method: (§1) The compounds have been tested for their inhibitory activity against partially purified β-lactamases from Escherichia coli (either TEM or RPI), Klebsiella aerogenes (K1) and Staphylococcus aureus (PCI). The substrate used was ampicillin sodium.
(§2) Ampicillin sodium at a concentration of 500 µg/ml was reacted with the enzyme at 37°C and pH7. The enzyme concentration was such as to destroy all the ampicillin within 10 minutes. The reaction was followed spectrophotometrically by observing the loss of absorption at 238 nm. Concentrations of the compound were added to inhibit the reaction, and the I5O value represents µg/ml of compound halving the initial velocity of hydrolysis of ampicillin.

In data set [2] the target is T2, partially purified β-lactamase TEM (Escherichia coli, UniProt P62593).
T2 construct: partially purified β-lactamases from Escherichia coli (either TEM or RPI); endogenous in cells; host or cells: Escherichia coli carrying the TEM plasmid, enzyme partially purified from the bacterium
T2 sequence (P62593 24-286 limits assumed): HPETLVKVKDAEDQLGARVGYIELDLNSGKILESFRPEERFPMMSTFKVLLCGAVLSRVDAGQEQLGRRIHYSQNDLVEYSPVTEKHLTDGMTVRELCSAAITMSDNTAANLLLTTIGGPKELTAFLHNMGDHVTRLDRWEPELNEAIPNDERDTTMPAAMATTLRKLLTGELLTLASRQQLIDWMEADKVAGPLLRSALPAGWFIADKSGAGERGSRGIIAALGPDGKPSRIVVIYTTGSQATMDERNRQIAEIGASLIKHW
Put plainly: β-Lactamase inhibition (hydrolysis of ampicillin). The settings on record: ampicillin sodium 500 µg/ml, 37°C, pH7, read-out: μg/ml of compound giving 50% inhibition of hydrolysis of ampicillin (converted). The data set is classed as biochemical. The method, then:
as §1, §2

The target of data set [3] is partially purified β-lactamase K1. Put plainly: β-Lactamase inhibition (hydrolysis of ampicillin). The data set is classed as biochemical. The note with it: β-lactamase KI; ampicillin sodium 500 µg/ml, 37°C, pH7. As to the method:
as §1, §2

The test system of a further data set is Pr. rettgeri 1356E. Description: Synergy testing with amoxycillin (MIC, agar dilution). In kind it is cell-based. The text has this:
(§3) Serial two-fold dilutions of freshly prepared test solution were made into Oxoid No. 1 Nutrient agar with or without added enrichment and poured into petri dishes. Plates were innoculated with a multipoint innoculator with innoculum containing approximately 10^5 colony forming units of the organisms shown in Table 1, all of which are clinical isolates.
(§4) Method as for 1, incorporating amoxycillin in serial two-fold dilutions along with a sub-inhibitory, fixed concentration of the test clavulanic acid derivative, as shown in the Table. All of the organisms are clinical isolates.
(In agar dilution the substance is mixed into plates at graded concentrations.)

The test system of a further data set is K. aerogenes 1963E. Described as above. In kind it is cell-based.
Text: as §3, §4

Another data set has as its system E. coli (TEM^+) 1193E. The description is as above. The data set is classed as cell-based.
Text: as §3, §4

Another data set can be described thus: Toxicity in mice. The settings on record: mouse, in vivo, ip; administered intraperitoneally to mice.
The next data set relates to E. cloacae 1321E. Put plainly: Minimum Inhibitory Concentration (MIC), agar dilution. In kind it is cell-based. The note with it: 18 hours at 37°C.
Text: as §3

In another data set the test system is H. influenzae 1184E. Described as above. In kind it is cell-based. The settings on record: 18 hours at 37°C.
Text: as §3

The next data set has as its system Micrococcus SP 1810E. The data set is described as above. The data set is classed as cell-based. The note with it: 18 hours at 37°C.
Text: as §3

Data set [4] relates to Staph. aureus 853E. The description is as above. In kind it is cell-based. The note with it: 18 hours at 37°C.
Text: as §3

The subject of another data set is K. aerogenes 1522E. Described as above. In kind it is cell-based. The settings on record: 18 hours at 37°C.
Text: as §3

The subject of another data set is E. cloacae 1051E. Described as above. The note with it: 18 hours at 37°C. The data set is classed as cell-based.
Text: as §3

The next data set has as its system E. coli 851E. The data set is described as above. The note with it: 18 hours at 37°C. The data set is classed as cell-based.
Text: as §3

For another data set, the system named is S. marcescens 1324E. The data set is described as above. In kind it is cell-based. The settings on record: 18 hours at 37°C.
Text: as §3

The subject of data set [5] is Staph. aureus 853E. Description: Synergy testing with amoxycillin (MIC, agar dilution). The settings on record: amoxycillin alone. The data set is classed as cell-based.
Text: as §3, §4

Setting [6] is: in the presence of 1µg/ml of compound.
The mark [7] stands for this setting: in the presence of 4µg/ml of compound.

Where only a bound is given, the exact number is not on record here.

T1 sequence (P00807 25-281): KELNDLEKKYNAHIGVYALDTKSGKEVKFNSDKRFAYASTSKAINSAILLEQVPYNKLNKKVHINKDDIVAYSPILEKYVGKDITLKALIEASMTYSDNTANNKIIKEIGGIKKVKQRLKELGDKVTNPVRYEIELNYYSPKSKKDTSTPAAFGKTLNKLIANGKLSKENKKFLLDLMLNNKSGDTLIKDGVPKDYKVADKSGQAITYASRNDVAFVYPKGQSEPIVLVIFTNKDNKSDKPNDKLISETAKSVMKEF

For the molecule `CCOC(=O)c1nnn(C/C=C2\O[C@@H]3CC(=O)N3[C@H]2C(=O)O)c1C(=O)OCC` [Example 2, Sodium (3R,5R,Z)-2-[2-(4,5-diethoxcarbonl-1,2,3-triazol-1-yl)-ethylidene]-clavam-3-carboxylate], the IC50 in data set [1] was 5330 nM; in [2] it was 761 nM. For the same molecule, the “μg/ml of compound giving 50% inhibition of hydrolysis of ampicillin” value in data set [3] was 0.8 µg/mL.
For the molecule `CCOC(=O)c1cn(C/C=C2\O[C@@H]3CC(=O)N3[C@H]2C(=O)O)nn1` [Example 4], the MIC of amoxycillin was 125 µg/mL in the data set on Pr. rettgeri 1356E (setting [6]), 4 µg/mL in the data set on Pr. rettgeri 1356E (setting [7]), 2 µg/mL with K. aerogenes 1963E (setting [6]) and over 250 µg/mL in the data set on E. coli (TEM^+) 1193E (setting [6]). The LD50 (usually the dose at which mortality reaches 50%) in the data set “Toxicity in mice” is over 500 mg/kg. Further, in [1], the IC50 is 419 nM. In addition, the “μg/ml of compound giving 50% inhibition of hydrolysis of ampicillin” value in [3] amounted to 0.35 µg/mL. In addition, the “MIC (agar dilution) of compound” value was 16 µg/mL in the data set on E. cloacae 1321E; 62 µg/mL against H. influenzae 1184E; under 0.1 µg/mL against Micrococcus SP 1810E; under 0.1 µg/mL with Staph. aureus 853E [4] (Staph. aureus 835E); 8 µg/mL in the data set with K. aerogenes 1522E; 16 µg/mL with E. cloacae 1051E. The “MIC (agar dilution) of compound” value with E. coli 851E stood at 4 µg/mL; in the data set with S. marcescens 1324E, 125 µg/mL.
For the molecule `CC(=O)c1cn(C/C=C2\O[C@@H]3CC(=O)N3[C@H]2C(=O)O)nn1` [Example 6, Sodium (3R,5R,Z)-2-[2-(4-acetyl-1,2,3-triazol-l-yl)-ethlidene]-clavam-3-carboxylate], the LD50 in “Toxicity in mice” was over 500 mg/kg. Moreover, the IC50 in [1] was 616 nM. In addition, in data set [3], the “μg/ml of compound giving 50% inhibition of hydrolysis of ampicillin” value worked out at 0.155 µg/mL. The “MIC (agar dilution) of compound” value in the data set on E. cloacae 1321E was 8 µg/mL; in the data set with H. influenzae 1184E, 62 µg/mL; in the data set with Micrococcus SP 1810E, under 0.1 µg/mL; against Staph. aureus 853E [4] (Staph. aureus 835E), under 0.1 µg/mL; in the data set on K. aerogenes 1522E it was 8 µg/mL; against E. cloacae 1051E it was 8 µg/mL. Moreover, the figures for the “MIC (agar dilution) of compound” value with E. coli 851E and against S. marcescens 1324E were 4 µg/mL and 62 µg/mL, respectively.
Turning to `O=C(O)c1cn(C/C=C2\O[C@@H]3CC(=O)N3[C@H]2C(=O)O)nn1` [Example 8, Disodium (3R,5R.Z)-2-[2-(4-carboxy-1.2.3-triazol-l-yl)-ethylidene]-clavam-3-carboxylate], the IC50 in data set [1] was 9860 nM; in [2], 374 nM. The “μg/ml of compound giving 50% inhibition of hydrolysis of ampicillin” value in data set [3] came to 0.22 µg/mL. The “MIC (agar dilution) of compound” value came to 8 µg/mL in the data set on E. cloacae 1321E; 31 µg/mL against H. influenzae 1184E; 8 µg/mL against Micrococcus SP 1810E; 8 µg/mL against Staph. aureus 853E [4] (Staph. aureus 835E); 16 µg/mL with K. aerogenes 1522E; 16 µg/mL against E. cloacae 1051E. The “MIC (agar dilution) of compound” value was 8 µg/mL against E. coli 851E and 31 µg/mL with S. marcescens 1324E.
Consider `CC(=O)c1cnnn1C/C=C1\O[C@@H]2CC(=O)N2[C@H]1C(=O)O` [Example 10, Sodium (3R,5R.Z)-2-[2-(5-acetvl-1.2,3-triazol-l-yl)-ethylidene]-clavam-3-carboxylate], for which the IC50 in [1] is 2400 nM; in [2], 1980 nM. Further, the “μg/ml of compound giving 50% inhibition of hydrolysis of ampicillin” value in data set [3] turned out to be 0.62 µg/mL.
On to `NC(=O)c1cn(C/C=C2\O[C@@H]3CC(=O)N3[C@H]2C(=O)O)nn1` [Example 12], for which the MIC of amoxycillin in the data set on Pr. rettgeri 1356E (setting [6]) is 8 µg/mL; with Pr. rettgeri 1356E (setting [7]), 1 µg/mL; in the data set on K. aerogenes 1963E (setting [6]), 1 µg/mL; in the data set with K. aerogenes 1963E (setting [7]), under 0.1 µg/mL; in the data set with E. coli (TEM^+) 1193E (setting [6]), 62 µg/mL; with E. coli (TEM^+) 1193E (setting [7]), 1 µg/mL. Besides, the IC50 was 1230 nM in [1] and 426 nM in data set [2]. Further, the “μg/ml of compound giving 50% inhibition of hydrolysis of ampicillin” value in [3] was found to be 0.34 µg/mL. Also, the “MIC (agar dilution) of compound” value was 4 µg/mL in the data set on E. cloacae 1321E; 31 µg/mL against H. influenzae 1184E; 0.2 µg/mL in the data set on Micrococcus SP 1810E; 0.5 µg/mL in the data set with Staph. aureus 853E [4] (Staph. aureus 853E); 8 µg/mL in the data set on K. aerogenes 1522E; 4 µg/mL with E. cloacae 1051E. In addition, the “MIC (agar dilution) of compound” value in the data set on E. coli 851E amounted to 4 µg/mL; against S. marcescens 1324E, 8 µg/mL.
Consider `N#Cc1cn(C/C=C2\O[C@@H]3CC(=O)N3[C@H]2C(=O)O)nn1` [Example 17, Sodium (3R,5R,Z)-2-[2-(4-cyano-1,2,3-triazol-1-yl)-ethylidene]clavam-3-carboxylate], for which the MIC of amoxycillin was 31 µg/mL in the data set on Pr. rettgeri 1356E (setting [6]); 2 µg/mL in the data set with Pr. rettgeri 1356E (setting [7]); 2 µg/mL in the data set with K. aerogenes 1963E (setting [6]); 0.5 µg/mL in the data set with K. aerogenes 1963E (setting [7]); 31 µg/mL in the data set on E. coli (TEM^+) 1193E (setting [6]). Also, in the data set “Toxicity in mice”, the LD50 was over 500 mg/kg. For the same molecule, the values for the IC50 in data set [1] and in data set [2] were 2540 nM and 363 nM, respectively. For the same molecule, the “μg/ml of compound giving 50% inhibition of hydrolysis of ampicillin” value in [3] was found to be 0.39 µg/mL. Moreover, the “MIC (agar dilution) of compound” value was 4 µg/mL in the data set with E. cloacae 1321E; 16 µg/mL against H. influenzae 1184E; under 0.1 µg/mL in the data set with Staph. aureus 853E [4] (Staph. aureus 835E); 8 µg/mL with K. aerogenes 1522E; 4 µg/mL against E. cloacae 1051E; 2 µg/mL in the data set on E. coli 851E. In addition, the “MIC (agar dilution) of compound” value in the data set with S. marcescens 1324E came out at 31 µg/mL.
As for `COC(=O)c1cn(C/C=C2\O[C@@H]3CC(=O)N3[C@H]2C(=O)O)nn1` [Example 19, Sodium (3R,5R,Z)-2-[2-(4-methoxycarbonyl-1,2,3-triazol-1-y)ethylidene]clavam-3-carboxylate], the MIC of amoxycillin in the data set with Pr. rettgeri 1356E (setting [6]) worked out at 16 µg/mL; with Pr. rettgeri 1356E (setting [7]), 1 µg/mL. The molecule also showed an LD50 in the data set “Toxicity in mice” of over 500 mg/kg. The “MIC (agar dilution) of compound” value against E. cloacae 1321E worked out at 16 µg/mL; in the data set with H. influenzae 1184E, 62 µg/mL; in the data set on Staph. aureus 853E [4] (Staph. aureus 853E), 0.5 µg/mL; against K. aerogenes 1522E, 16 µg/mL; against E. cloacae 1051E it was 16 µg/mL; with E. coli 851E, 4 µg/mL. The “MIC (agar dilution) of compound” value in the data set on S. marcescens 1324E amounted to 62 µg/mL.
In the case of `O=C(O)[C@H]1/C(=C/Cn2ccnn2)O[C@@H]2CC(=O)N21` [Example 22], the “MIC (agar dilution) of compound” value in the data set on E. cloacae 1321E is 8 µg/mL; in the data set on H. influenzae 1184E, 16 µg/mL; in the data set on Staph. aureus 853E [4] (Staph. aureus 853E), 2 µg/mL; in the data set with K. aerogenes 1522E it was 8 µg/mL; with E. cloacae 1051E, 8 µg/mL; in the data set with E. coli 851E, 4 µg/mL. Also, the “MIC (agar dilution) of compound” value in the data set with S. marcescens 1324E was 8 µg/mL.
Consider `CC1(C)S[C@@H]2[C@H](NC(=O)[C@H](N)c3ccc(O)cc3)C(=O)N2[C@H]1C(=O)O` [amoxycillin, reference compound], for which the MIC of amoxycillin was over 250 µg/mL in the data set with Pr. rettgeri 1356E (amoxycillin alone), 62 µg/mL in the data set with K. aerogenes 1963E (amoxycillin alone), 2 µg/mL with Staph. aureus 853E [5] and over 250 µg/mL in the data set with E. coli (TEM^+) 1193E (amoxycillin alone).
